# Reference: PMC12040169 (PLOS Biology, 2025)
# Test: in vitro
# Conditions: human, hela cells, % viability
row,SMILES,"viability at 28.5 h, 10 µM"
1,O=C(NC(c1ccccn1)c1cccs1)C1CCN(S(=O)(=O)c2ccc(C(F)(F)F)cc2)CC1 (stereo not shown) [CBK060153],92.4%
2,O=C(NC(c1ccccc1)c1ccsc1)C1CCN(S(=O)(=O)c2cccc(Cl)c2)CC1 (stereo not shown) [CBK060188],97.7%
3,COc1ccc(S(=O)(=O)N2CCC(C(=O)N(C)C(c3cnccn3)c3ccccc3C)CC2)cc1 (stereo not shown) [CBK060210],99.3%
4,CN(C(=O)C1CCN(S(=O)(=O)c2cn(C)cn2)CC1)C(c1ccc(F)cc1)c1ccccn1 (stereo not shown) [CBK060229],83.8%
5,Cc1ccccc1C(c1cnccn1)N(C)C(=O)C1CCN(S(=O)(=O)C(C)C)CC1 (stereo not shown) [CBK060242],101%
6,C=CCOC(=O)N1CCC(C(=O)N(C)C(c2cccc(OC)c2)c2ccccn2)CC1 (stereo not shown) [CBK060244],91.5%
7,Cc1ccccc1C(c1cnccn1)N(C)C(=O)C1CCN(S(=O)(=O)c2cn(C)cn2)CC1 (stereo not shown) [CBK060264],93.1%
8,Cc1ccccc1C(NC(=O)C1CCN(C(=O)NCCc2ccccc2)CC1)c1ncccc1C (stereo not shown) [CBK060409],91%
9,COc1ccc(C(c2ccccc2C)N(C)C(=O)C2CCN(C(C)=O)CC2)cn1 (stereo not shown) [CBK060490],90.8%
10,O=C(NC(c1ccccc1)c1cccnc1)C1CCN(C(=O)CN2C(=O)c3ccccc3C2=O)CC1 (stereo not shown) [CBK060515],108%
11,COc1ccccc1C(=O)N1CCC(C(=O)N(C)C(c2ccccc2)c2ncccc2C)CC1 (stereo not shown) [CBK060531],75.4%
12,CN1CCC2(CC1)OCc1cc(-c3cccnc3)ccc1O2 [CBK061020],94.6%
13,COc1ccccc1-c1ccc2c(c1)COC1(CCN(C)CC1)O2 [CBK061024],82.2%
14,c1coc(-c2ccc3c(c2)COC2(CCN(CCc4ccc5c(c4)OCO5)CC2)O3)c1 [CBK061057],90.4%
15,CSc1cc(C)c2c(c1)COC1(CCN(CC3CC3)CC1)O2 [CBK061383],94.1%
16,Cc1cc(C)c2c(c1)COC1(CCN(Cc3ccccc3)CC1)O2 [CBK061572],102%
17,O=C(COc1ccccc1)Nc1nn(Cc2ccc(S(=O)(=O)N3CCCC3)cc2)c2ccccc12 [CBK061594],58.6%
18,CC(Oc1ccccc1)C(=O)Nc1nn(Cc2ccc(S(=O)(=O)N3CCCC3)cc2)c2ccccc12 (stereo not shown) [CBK061595],102%
19,CCN(Cc1ccncc1)C(CC1CCCCC1)c1ccccc1 (stereo not shown) [CBK061639T],97.3%
20,COc1cccc(-c2ccc3ccc(N)nc3n2)c1 [CBK061640],99%
21,CCN(Cc1cccnc1)C(CC1CCCCC1)c1ccccc1 (stereo not shown) [CBK061673],98%
22,CCN(C(=O)c1ccncc1)C(CC1CCCCC1)c1ccccc1 (stereo not shown) [CBK061674],86.9%
23,CCNC(=O)N1CCc2c([nH]c3ccc(OC)cc23)C12CCN(CCOc1ccccc1)C2 (stereo not shown) [CBK061690],93%
24,COc1ccc(CCNC(=O)CCCc2cn(C)c3ccccc23)cc1OC [CBK061740],100%
25,Cc1cccc(C)c1NC(=O)Nc1cc(N2CCNCC2)c2occc2c1 [CBK061748C],82.8%

row,SMILES,"viability at 28.5 h, 10 µM"
1,COc1ccc(Br)c(C(=O)Nc2cc(N3CCNCC3)c3occc3c2)c1 [CBK061757C],115%
2,COc1cccc(OCCN2CCC3(C2)NCCc2c3[nH]c3cc(OC)ccc23)c1 (stereo not shown) [CBK061794],94.3%
3,COc1cc(-c2ccc3ccc(N)nc3n2)cc(OC)c1OC [CBK061866],90.6%
4,CCCCCC/C=C/c1cnc2nc(NC(=O)NCC)ccc2c1 [CBK061880],93.3%
5,CC(C)(C)c1ccc(-c2cnc3nc(N)ccc3c2)cc1 [CBK061888],88.3%
6,CS(=O)(=O)c1ccc(-c2cnc3nc(N)ccc3c2)cc1 [CBK061916],92.9%
7,Nc1cc2cccnc2c(-c2ccc(OC(F)(F)F)cc2)n1 [CBK061926],90%
8,CS(=O)(=O)Nc1cc2cccnc2c(-c2ccccc2)n1 [CBK061928],95.5%
9,O=C(c1cc(C(F)(F)F)cc(C(F)(F)F)c1)N1CCC(O)(c2ccc(Cl)cc2)CC1 [CBK061972],96.9%
10,COc1ccc(S(=O)(=O)Nc2cc(N3CCCC3)c3occc3c2)cc1OC [CBK061975],97.2%
11,O=[N+]([O-])c1cccc(S(=O)(=O)Nc2nnc(C(F)(F)F)s2)c1 [CBK062002],118%
12,O=S(=O)(Nc1nnc(C(F)(F)F)s1)c1ccc(-c2ccccn2)s1 [CBK062016],91.9%
13,Cc1c(S(=O)(=O)Nc2nnc(C(F)(F)F)s2)sc2ccc(Cl)cc12 [CBK062018],81.9%
14,O=[N+]([O-])c1cc(S(=O)(=O)Nc2nnc(C(F)(F)F)s2)ccc1Cl [CBK062021],105%
15,O=C(O)c1cc(S(=O)(=O)Nc2nnc(C(F)(F)F)s2)c(F)cc1Cl [CBK062022],95%
16,O=C(O)c1ccc(S(=O)(=O)Nc2nnc(C(F)(F)F)s2)cc1 [CBK062023],91.5%
17,Cc1noc(C)c1S(=O)(=O)NC1CCN(Cc2ccccc2)CC1 [CBK062028],83.4%
18,O=S(=O)(NC1CCN(Cc2ccccc2)CC1)c1cccc2nsnc12 [CBK062029],80.8%
19,O=S(=O)(NC1CCN(Cc2ccccc2)CC1)c1cccc2nonc12 [CBK062030],94.6%
20,Cc1noc(C)c1S(=O)(=O)Nc1ccnn1C [CBK062073],90.1%
21,Cc1c(S(=O)(=O)Nc2ccnn2C)cnn1-c1ccccc1 [CBK062079],97.5%
22,Cn1nccc1NS(=O)(=O)c1ccc(-c2cnco2)s1 [CBK062088],94.4%
23,Cn1nccc1NS(=O)(=O)c1cc(C(F)(F)F)cc(C(F)(F)F)c1 [CBK062090],92.6%
24,O=S(=O)(Nc1ccc(C(O)(C(F)(F)F)C(F)(F)F)cc1)c1cccc2nsnc12 [CBK062096],108%
25,Cc1c(S(=O)(=O)Nc2ccc(C(O)(C(F)(F)F)C(F)(F)F)cc2)cnn1-c1ccccc1 [CBK062099],92.1%

# Same assay, conditions: human, hela cells, % viability, bulk resorufin, single well
row,SMILES,"viability at 28.5 h, 10 µM"
1,O=C(Nc1ccccc1F)N1CCC2(CC1)OCc1cc(-c3ccco3)ccc1O2 [CBK060597],92%
2,COc1cccc2c1OC1(CCN(C(=O)Nc3ccc(F)cc3F)CC1)OC2 [CBK060689],100%
3,CSc1cc(C)c2c(c1)COC1(CCN(C(=O)Nc3c(C)noc3C)CC1)O2 [CBK060699],95.3%
4,O=C(N[C@@H]1C[C@H]1c1ccccc1)N1CCC2(CC1)OCc1cc(F)ccc1O2 [CBK060724],82.1%
5,CC(C)(C)NC(=O)N1CCC2(CC1)OCc1cc(Br)ccc1O2 [CBK060739],106%
6,CSc1cc(C)c2c(c1)COC1(CCN(C(=O)NC3CCCCC3)CC1)O2 [CBK060745],97.4%
7,CSc1cc(C)c2c(c1)COC1(CCN(C(=O)N[C@@H](C)c3ccccc3)CC1)O2 [CBK060747],94.5%
8,COc1ccc2c(c1)COC1(CCN(C(=O)Nc3ccc(N(C)C)cc3)CC1)O2 [CBK060753],98.8%
9,COc1ccc2c(c1)COC1(CCN(C(=O)N[C@@H](C)c3ccccc3)CC1)O2 [CBK060757],106%
10,COc1ccc2c(c1)COC1(CCN(C(=O)NC(=O)c3ccccc3)CC1)O2 [CBK060804],95.7%
11,O=C(O)c1ccccc1C(=O)N1CCC2(CC1)OCc1cc(-c3ccco3)ccc1O2 [CBK060824],93.6%
12,O=C(O)C1CC1C(=O)N1CCC2(CC1)OCc1cc(-c3ccco3)ccc1O2 (stereo not shown) [CBK060825],103%
13,COc1ccc2c(c1)COC1(CCN(C(=O)C3CCC3C(=O)O)CC1)O2 (stereo not shown) [CBK060857],97.1%
14,O=C(O)CC1(CC(=O)N2CCC3(CC2)OCc2cc(F)ccc2O3)CCCC1 [CBK060858],94.7%
15,c1cc(-c2ccc3c(c2)COC2(CCNCC2)O3)ccn1 [CBK060867],99%
16,c1csc(-c2ccc3c(c2)COC2(CCNCC2)O3)c1 [CBK060871],90.3%
17,CC(=O)N1CCC2(CC1)OCc1cc(-c3c(C)noc3C)ccc1O2 [CBK060896],94.4%
18,CCOC(=O)N1CCC2(CC1)OCc1cc(-c3ccccc3CO)ccc1O2 [CBK060908],103%

row,SMILES,"viability at 28.5 h, 10 µM"
1,COc1ccc(-c2ccc3c(c2)COC2(CCNCC2)O3)cn1 [CBK060913],81%
2,Fc1ccc(-c2ccc3c(c2)COC2(CCNCC2)O3)c(F)c1 [CBK060917],96%
3,c1ccc2cc(-c3ccc4c(c3)COC3(CCNCC3)O4)ccc2c1 [CBK060949],88%
4,CC(=O)Nc1cccc(-c2ccc3c(c2)COC2(CCNCC2)O3)c1 [CBK060956],94.5%
5,O=[N+]([O-])c1cccc(-c2ccc3c(c2)COC2(CCNCC2)O3)c1 [CBK060957],105%
6,Fc1ccc(-c2ccc3c(c2)COC2(CCNCC2)O3)cc1Cl [CBK060960],89.8%
7,CC(=O)N1CCC2(CC1)OCc1cc(-c3ccc(CCC(=O)O)cc3)ccc1O2 [CBK060971],90.3%
8,CC(=O)N1CCC2(CC1)OCc1cc(-c3ccccc3C(=O)O)ccc1O2 [CBK060975],92.1%
9,CCOC(=O)N1CCC2(CC1)OCc1cc(-c3cccc(F)c3)ccc1O2 [CBK060987],104%
10,CC(=O)N1CCC2(CC1)OCc1cc(-c3cncc4ccccc34)ccc1O2 [CBK061010],90.4%
11,O=C(c1ccco1)N1CCC2(CC1)OCc1cc(Cl)ccc1O2 [CBK061068],94.4%
12,COc1cccc2c1OC1(CCN(C(=O)c3cccnc3)CC1)OC2 [CBK061070],95.7%
13,COc1cccc2c1OC1(CCN(C(=O)c3ccno3)CC1)OC2 [CBK061071],97%
14,O=C(Cc1cccs1)N1CCC2(CC1)OCc1ccccc1O2 [CBK061086],86.8%
15,COc1ccc(-c2ccc3c(c2)COC2(CCNCC2)O3)c(OC)c1 [CBK061344],91.1%
16,Cc1cc(C)c2c(c1)COC1(CCNCC1)O2 [CBK061574],100%
17,c1ccc(-c2cccc3c2OC2(CCNCC2)OC3)cc1 [CBK061589],105%
